Measured values from patent US20200260700A1, “Transgenic Insect and Use of Same in Methods for Testing Natural or Synthetic Substances” (Robert Bosch Gesellschaft für Medizinische Forschung mbH, priority 2017, published 2020).

Biological target: human SLC22A1/OCT1 protein (Homo sapiens, UniProt O15245)
Conditions: ethidium bromide and cimetidine simultaneously injected into ventral side of Drosophila melanogaster embryos expressing OCT1/SLC22A1 reference sequence in salivary glands (GAL4/UAS); confocal laser scanning microscopy
Procedure: The salivary glands are moreover characterized by the tissue-specific expression of GFP. These living embryos were injected with 0.5 μM ethidium bromide. The accumulation of ethidium bromide in the salivary glands was visualized by confocal laser scanning microscopy.
The salivary glands are moreover characterized by the tissue-specific expression of GFP. Ethidium bromide and cimetidine were simultaneously injected into the ventral side of the embryos.

Sequence of human SLC22A1/OCT1 protein (O15245 whole entry, the tested form may be a part): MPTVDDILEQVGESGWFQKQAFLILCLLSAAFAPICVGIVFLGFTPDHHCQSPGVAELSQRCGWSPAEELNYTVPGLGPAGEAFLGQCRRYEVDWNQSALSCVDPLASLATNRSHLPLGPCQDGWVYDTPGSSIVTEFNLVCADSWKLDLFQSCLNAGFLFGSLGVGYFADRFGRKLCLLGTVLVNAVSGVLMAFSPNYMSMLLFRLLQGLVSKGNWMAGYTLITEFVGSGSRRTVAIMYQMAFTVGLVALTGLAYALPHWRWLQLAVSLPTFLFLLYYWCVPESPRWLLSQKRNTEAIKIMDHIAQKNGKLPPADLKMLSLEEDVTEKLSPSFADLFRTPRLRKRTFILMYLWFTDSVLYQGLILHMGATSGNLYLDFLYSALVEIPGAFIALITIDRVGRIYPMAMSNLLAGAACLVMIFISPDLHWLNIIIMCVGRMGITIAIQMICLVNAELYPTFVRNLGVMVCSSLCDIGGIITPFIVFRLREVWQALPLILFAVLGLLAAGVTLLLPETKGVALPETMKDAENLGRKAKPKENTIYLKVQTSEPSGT

With `CN/C(=N/CCSCc1nc[nH]c1C)NC#N` [cimetidine] the “inhibition of the uptake of ethidium bromide” value was “concentration-dependent”.
